Reference: ChEMBL document CHEMBL1148847, “Synthesis of 3-(1H-benzimidazol-2-yl)-5-isoquinolin-4-ylpyrazolo[1,2-b]pyridine, a potent cyclin dependent kinase 1 (CDK1) inhibitor” (Bioorg Med Chem Lett, 2007)

How the values were obtained:
[1] = target: Vascular endothelial growth factor receptor 2 (Homo sapiens, UniProt P35968); test: Inhibition of VEGFR2
[2] = Inhibition of CDK1/Cyclin B by Flashplate assay; design: species or system Homo sapiens

Sequence of Vascular endothelial growth factor receptor 2 (P35968 whole entry): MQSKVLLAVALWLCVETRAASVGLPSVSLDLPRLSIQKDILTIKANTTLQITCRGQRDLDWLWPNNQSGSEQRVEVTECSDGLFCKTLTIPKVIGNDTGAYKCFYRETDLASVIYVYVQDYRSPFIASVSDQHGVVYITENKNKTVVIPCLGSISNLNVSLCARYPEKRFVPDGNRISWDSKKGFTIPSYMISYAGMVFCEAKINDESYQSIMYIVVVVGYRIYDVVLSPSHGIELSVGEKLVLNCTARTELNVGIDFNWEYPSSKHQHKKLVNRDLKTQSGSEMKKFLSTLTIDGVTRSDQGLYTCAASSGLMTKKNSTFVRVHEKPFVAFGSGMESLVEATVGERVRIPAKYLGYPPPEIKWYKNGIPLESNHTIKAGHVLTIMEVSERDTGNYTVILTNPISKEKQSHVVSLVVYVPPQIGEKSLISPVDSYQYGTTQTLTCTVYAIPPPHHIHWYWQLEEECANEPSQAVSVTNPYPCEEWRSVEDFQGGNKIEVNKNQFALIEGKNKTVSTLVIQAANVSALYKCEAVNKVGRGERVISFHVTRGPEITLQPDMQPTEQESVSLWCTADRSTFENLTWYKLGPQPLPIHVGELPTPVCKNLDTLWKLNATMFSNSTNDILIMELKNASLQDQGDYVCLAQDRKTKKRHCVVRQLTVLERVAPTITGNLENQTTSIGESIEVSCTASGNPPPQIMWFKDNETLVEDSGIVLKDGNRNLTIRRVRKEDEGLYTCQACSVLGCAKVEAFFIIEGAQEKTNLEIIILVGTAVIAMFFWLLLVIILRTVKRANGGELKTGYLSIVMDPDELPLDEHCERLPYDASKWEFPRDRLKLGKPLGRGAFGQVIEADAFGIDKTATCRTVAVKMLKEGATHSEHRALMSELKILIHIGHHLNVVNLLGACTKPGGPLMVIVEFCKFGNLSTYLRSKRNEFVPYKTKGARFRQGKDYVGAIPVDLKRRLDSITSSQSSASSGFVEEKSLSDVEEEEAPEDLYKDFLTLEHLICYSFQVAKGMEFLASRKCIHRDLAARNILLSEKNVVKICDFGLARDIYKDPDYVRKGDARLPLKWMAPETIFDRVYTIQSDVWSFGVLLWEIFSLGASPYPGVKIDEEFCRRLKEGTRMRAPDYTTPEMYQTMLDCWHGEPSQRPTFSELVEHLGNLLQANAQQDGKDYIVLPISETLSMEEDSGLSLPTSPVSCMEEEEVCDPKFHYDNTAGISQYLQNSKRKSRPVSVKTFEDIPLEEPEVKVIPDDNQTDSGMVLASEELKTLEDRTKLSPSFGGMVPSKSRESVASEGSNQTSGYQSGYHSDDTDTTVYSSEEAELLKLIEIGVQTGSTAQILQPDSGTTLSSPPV

c1ccc2c(-c3cnc4[nH]nc(-c5nc6ccccc6[nH]5)c4c3)cncc2c1 showed an IC50 [1] of 1.46 µM and an IC50 [2] of 0.023 µM.
